Measured values taken from the supplement of paper PMC10331698.
± gives the standard deviation of the averaged measurements.

Tests used:
Test in all cases: LOEC (log10 uM (lowest observed effect concentration))
Perfluorononanoic acid = compound: O=C(O)C(F)(F)C(F)(F)C(F)(F)C(F)(F)C(F)(F)C(F)(F)C(F)(F)C(F)(F)F [Perfluorononanoic acid]
Description: (§1)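 BioMAP Diversity Plus panel in human primary cell co-cultures, 4 concentrations in duplicate blinded samples. Responses are log10 fold change versus DMSO control, processed with tcpl v2.1.0. A hit is called when responses at any concentration exceed the cutoff (the larger of 3*bmad or log10(1.2)); the lowest observed effect concentration (modl_ga, log10 uM) is reported for hits.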

[1] = compound: O=C(O)C(F)(F)OC(F)(F)C(F)(F)OC(F)(F)C(F)(F)OC(F)(F)C(F)(F)C(F)(F)C(F)(F)F [Perfluoro-3,6,9-trioxatridecanoic acid]
Description: as §1

[2] = compound: CCNS(=O)(=O)C(F)(F)C(F)(F)C(F)(F)C(F)(F)C(F)(F)C(F)(F)C(F)(F)C(F)(F)F [N-Ethylperfluorooctanesulfonamide]
Description: as §1

Perfluoroundecanoic acid = compound: O=C(O)C(F)(F)C(F)(F)C(F)(F)C(F)(F)C(F)(F)C(F)(F)C(F)(F)C(F)(F)C(F)(F)C(F)(F)F [Perfluoroundecanoic acid]
Description: as §1

[3] = compound: NS(=O)(=O)C(F)(F)C(F)(F)C(F)(F)C(F)(F)C(F)(F)C(F)(F)C(F)(F)C(F)(F)F [Perfluorooctanesulfonamide]
Description: as §1

[4] = compound: O=C(O)C=C(C(F)(F)F)C(F)(F)F [3,3-Bis(trifluoromethyl)-2-propenoic acid]
Description: as §1

[5] = compound: OCC(F)(F)OC(F)(F)C(F)(F)OC(F)(F)C(F)(F)OC(F)(F)CO [1H,1H,11H,11H-Perfluorotetraethylene glycol]
Description: as §1

Test System | LOEC (log10 uM) (Perfluorononanoic acid) | LOEC (log10 uM) [1] | LOEC (log10 uM) [2] | LOEC (log10 uM) (Perfluoroundecanoic acid) | LOEC (log10 uM) [3] | LOEC (log10 uM) [4] | LOEC (log10 uM) [5]
KF3CT IP10 down | 1.78 | 0.845 | 1.54 ± 0.34 | 0.845 | 1.3 | – | –
KF3CT MCP1 down | 0.801 ± 0.71 | 0.845 | – | 0.845 | 1.78 | – | –
KF3CT MIG down | – | 1.3 | – | 0.845 | 1.78 | – | –
KF3CT MMP9 down | 1.31 ± 0.66 | 0.845 | 1.3 | 0.301 | 1.3 | – | –
KF3CT PAI1 down | 1.78 | 0.845 | 1.54 ± 0.34 | 0.301 | 1.54 ± 0.34 | – | –
KF3CT SRB down | – | 1.3 | – | 0.845 | 1.78 | – | –
KF3CT TIMP2 down | – | 0.845 | 1.78 | 0.845 | 1.78 | – | –
KF3CT uPA down | – | 1.3 | 1.78 | 0.845 | 1.3 | – | –
LPS CD40 down | 1.78 | 1.78 | 1.78 | – | 1.78 | 1.78 | –
LPS CD69 down | 1.78 | 1.78 | – | – | 1.3 | – | –
LPS Eselectin down | – | 1.78 | – | – | 1.78 | – | –
LPS IL8 down | – | 1.07 ± 0.32 | 1.78 | – | 1.78 | – | –
LPS MCP1 down | 1.78 | 1.54 ± 0.34 | 1.78 | – | 1.78 | – | –
LPS MCSF down | – | 1.78 | – | – | 1.78 | 1.31 ± 0.66 | –
LPS SRB down | 1.78 | 1.78 | 1.78 | – | 1.78 | – | –
LPS TissueFactor down | – | 1.78 | – | – | 1.78 | – | –
LPS TissueFactor up | – | – | 1.78 | – | – | – | –
LPS VCAM1 down | 1.78 | 1.78 | – | – | 1.78 | 0.573 ± 0.39 | –
MyoF ACTA1 down | 1.78 | 0.845 | 1.78 | 0.845 | 1.3 | – | 1.78
MyoF CollagenI down | 1.54 ± 0.34 | 0.845 | 1.78 | 0.301 | 1.3 | – | –
MyoF CollagenIII down | 1.78 | 0.845 | 1.78 | 0.301 | 1.3 | – | –
MyoF CollagenIV up | 1.3 | – | – | – | – | – | –
MyoF Decorin down | – | 1.3 | 1.78 | 0.845 | – | – | –
MyoF IL8 down | – | 1.78 | 1.78 | 0.845 | 1.78 | – | –
MyoF PAI1 down | – | 1.07 ± 0.32 | 1.78 | 0.845 | 1.78 | – | –
MyoF SRB down | – | 1.07 ± 0.32 | 1.78 | 0.845 | 1.3 | – | –
MyoF TIMP1 down | – | 1.3 | 1.3 | 0.573 ± 0.39 | 1.78 | – | –

Test System | LOEC (log10 uM) (Perfluorononanoic acid) | LOEC (log10 uM) [1] | LOEC (log10 uM) [2] | LOEC (log10 uM) (Perfluoroundecanoic acid) | LOEC (log10 uM) [3] | LOEC (log10 uM) [4] | LOEC (log10 uM) [5]
MyoF VCAM1 down | 1.78 | 0.845 | 1.3 | 0.845 | 1.3 | 1.3 | –
MyoF bFGF down | – | 1.07 ± 0.32 | 1.78 | 0.845 | 1.78 | – | –
SAg CD38 down | 1.78 | 1.78 | 1.78 | – | 1.54 ± 0.34 | – | –
SAg CD40 down | 1.78 | 1.78 | 1.3 | 0.845 | 1.3 | – | 1.78
SAg CD69 down | 1.78 | 1.54 ± 0.34 | 1.3 | 0.845 | 1.54 ± 0.34 | 1.78 | –
SAg MCP1 down | 1.78 | 1.78 | 1.78 | – | 1.78 | – | –
SAg MIG down | – | 1.78 | – | – | 1.78 | – | –
SAg PBMCCytotoxicity down | – | 1.78 | – | – | 1.78 | – | –
SAg Proliferation down | 1.78 | 1.78 | 1.78 | – | 1.78 | 1.78 | –
SAg SRB down | 1.78 | 1.78 | 1.78 | – | 1.78 | – | –
hDFCGF CollagenI down | – | 1.54 ± 0.34 | 1.78 | 0.845 | – | – | –
hDFCGF CollagenIII down | – | 0.845 | 0.845 | 0.845 | 1.3 | – | –
hDFCGF EGFR down | – | – | – | 0.301 | – | – | –
hDFCGF ICAM1 down | 1.78 | 1.07 ± 0.32 | 1.54 ± 0.34 | 0.845 | 1.3 | – | –
hDFCGF IL8 down | – | 1.3 | 1.78 | 0.845 | 1.3 | – | –
hDFCGF IP10 down | 1.78 | 0.845 | 0.845 | 0.301 | 0.573 ± 0.39 | – | 1.3
hDFCGF ITAC down | 1.78 | 0.845 | 0.845 | 0.845 | 0.845 | – | 1.3
hDFCGF MCP1 down | – | 0.845 | 1.78 | 0.573 ± 0.39 | 1.3 | – | 1.54 ± 0.34
hDFCGF MCSF down | – | 0.845 | 1.3 | 0.845 | 1.3 | – | 1.54 ± 0.34
hDFCGF MIG down | 1.54 ± 0.34 | 0.845 | 1.3 | 0.845 | 0.573 ± 0.39 | – | 0.845
hDFCGF MMP1 up | – | – | – | – | – | – | 1.54 ± 0.34
hDFCGF PAI1 down | – | 0.845 | 1.54 ± 0.34 | 0.845 | 1.3 | – | –
hDFCGF SRB down | – | 0.845 | 1.54 ± 0.34 | 0.845 | 1.78 | – | –
hDFCGF TIMP1 down | – | 1.07 ± 0.32 | 1.78 | 0.845 | – | – | –
hDFCGF TIMP1 up | – | – | – | – | 1.78 | – | –
hDFCGF TIMP2 down | – | 0.845 | 1.54 ± 0.34 | 0.845 | – | – | –
